PubChem BioAssay (NCI)
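A five-concentration, 48-hour dose response in 96-well plates underlies each endpoint, interpolated linearly between surrounding concentrations. At the TGI there is no net growth.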

Legend:
Experiment in all cases: inhibition of tumour cell growth, NCI panel, 48 h
[1] = test system: BT-549 breast
[2] = test system: IGROV1 ovarian
[3] = test system: U251 CNS
[4] = test system: COLO 205 colon
[5] = test system: SNB-19 CNS
[6] = test system: SW-620 colon
[7] = test system: SK-MEL-2 melanoma
[8] = test system: KM12 colon
[9] = test system: UACC-62 melanoma
[10] = test system: TK-10 renal
[11] = test system: SNB-75 CNS
[12] = test system: K-562 leukemia
[13] = test system: HCT-116 colon
[14] = test system: M14 melanoma
[15] = test system: RXF 393 renal
[16] = test system: SF-268 CNS
[17] = test system: 786-0 renal
[18] = test system: RPMI-8226 leukemia
[19] = test system: HS 578T breast
[20] = test system: A549 NSCLC
[21] = test system: HT29 colon
[22] = test system: T-47D breast
[23] = test system: ACHN renal
[24] = test system: SK-MEL-5 melanoma
[25] = test system: SF-539 CNS
[26] = test system: UACC-257 melanoma
[27] = test system: SN12C renal
[28] = test system: MDA-MB-435
[29] = test system: MCF7 breast
[30] = test system: DU-145 prostate
[31] = test system: HCT-15 colon
[32] = test system: SR leukemia
[33] = test system: UO-31 renal
[34] = test system: A498 renal
[35] = test system: HL-60(TB) leukemia
[36] = test system: HCC-2998 colon
[37] = test system: OVCAR-4 ovarian
[38] = test system: HOP-62 NSCLC
[39] = test system: OVCAR-3 ovarian
[40] = test system: LOX IMVI melanoma
[41] = test system: SK-OV-3 ovarian
[42] = test system: HOP-92 NSCLC
[43] = test system: MALME-3M melanoma
[44] = test system: MDA-N
[45] = test system: NCI-H23 lung
[46] = test system: NCI/ADR-RES ovarian
[47] = test system: NCI-H460 lung
[48] = test system: OVCAR-5 ovarian
[49] = test system: NCI-H226 lung
[50] = test system: SK-MEL-28 melanoma
[51] = test system: MDA-MB-231 breast
[52] = test system: EKVX NSCLC
[53] = test system: CAKI-1 renal
[54] = test system: NCI-H522 lung
[55] = test system: PC-3 prostate
[56] = test system: CCRF-CEM leukemia
[57] = test system: MOLT-4 leukemia
[58] = test system: SF-295 CNS
[59] = test system: OVCAR-8 ovarian

Measured: TGI

Cc1ccc(-c2cn3c(nc4ccccc43)c(/C=C/c3ccco3)n2)cc1
89 µM: [32]
> 100 µM: [1] | [2] | [3] | [4] | [5] | [6] | [8] | [9] | [10] | [11] | [12] | [13] | [14] | [15] | [16] | [17] | [20] | [21] | [22] | [23] | [24] | [25] | [26] | [27] | [28] | [29] | [30] | [31] | [33] | [34] | [35] | [36] | [37] | [38] | [39] | [40] | [41] | [42] | [43] | [44] | [45] | [46] | [47] | [48] | [49] | [50] | [51]
72.9 µM: [7]
84.2 µM: [19]
67.7 µM: [18]

CSc1nc(=O)cnn1C
> 100 µM: [1] | [2] | [3] | [4] | [5] | [6] | [7] | [8] | [9] | [10] | [11] | [12] | [13] | [14] | [15] | [52] | [16] | [17] | [53] | [18] | [19] | [54] | [20] | [21] | [22] | [23] | [24] | [26] | [27] | [28] | [29] | [30] | [31] | [32] | [33] | [36] | [55] | [37] | [38] | [39] | [56] | [57] | [41] | [43] | [44] | [45] | [46] | [47] | [48] | [58] | [59] | [49] | [50] | [51]

COc1ccccc1N/C(SCc1ccccc1)=C(/C(Cl)=C(Cl)Cl)[N+](=O)[O-]
84.2 µM: [11]
47.7 µM: [37]
57.9 µM: [12]
42.4 µM: [21]
28.5 µM: [50]
88.2 µM: [18]
40.7 µM: [39]
38.7 µM: [43]
42.5 µM: [28]
49.8 µM: [31]
31.1 µM: [25]
74.9 µM: [53]
65.6 µM: [22]
47.3 µM: [3] | [27]
78.8 µM: [46]
27.4 µM: [59]
> 100 µM: [5] | [7] | [8] | [9] | [13] | [14] | [52] | [20] | [23] | [26] | [29] | [30] | [34] | [55] | [38] | [56] | [57] | [41] | [44] | [47] | [48] | [49]
59.6 µM: [58]
32.9 µM: [1]
34.6 µM: [33]
97.8 µM: [17]
48.4 µM: [51]
31.7 µM: [6] | [45]
39 µM: [16]
33.7 µM: [4]

C=C1CC[C@H]2C(C)=CC[C@H]3C(=C)C(=O)O[C@@H]3[C@@H]12
> 100 µM: [1] | [2] | [3] | [4] | [5] | [6] | [7] | [9] | [10] | [12] | [13] | [14] | [52] | [17] | [53] | [54] | [20] | [21] | [22] | [23] | [24] | [25] | [26] | [27] | [28] | [29] | [30] | [31] | [32] | [33] | [34] | [35] | [36] | [55] | [37] | [40] | [56] | [57] | [41] | [42] | [43] | [44] | [45] | [46] | [47] | [48] | [58] | [59] | [49] | [50] | [51]
